Laboratory results reported in patent US20230372346A1, “TREATMENT REGIMENS FOR EXON-20 INSERTION MUTANT EGFR CANCERS” (CULLINAN PEARL CORP., priority 2020, published 2023).
Entries after “also recorded” stand apart in the source; their conditions may differ. Where two headings read alike, the source gives them in different places.

How the values were obtained:
[1] = Phase 1/2a study, pharmacokinetics; format: in vivo, human
Experimental: (§1) This is a Phase 1/2a, open-label, multicenter, first-in-human trial to evaluate the safety and tolerability, PK, PD, and preliminary efficacy of CLN-081 in patients with non-small cell lung cancer (NSCLC) harboring epidermal growth factor receptor (EGFR) exon 20 insertion mutations.
PK analysis has been performed with CLN-081 plasma concentrations determined at pre-dose, 0.5, 1, 2, 3, 4, 6, 8 and 24 hour % post initial dose on Cycle (C) I Day (D) I and C1D15. […] CLN-081 has typically been rapidly absorbed with tmax values ranging from 0.5 to 2 hours and a mean average terminal phase elimination half-life (t1/2) of approximately 4 hours.

[2] = tested on: NSCLC harboring EGFR exon 20 insertion mutations; assay: Phase 1/2a study, antitumor activity (RECIST v1.1); format: in vivo, human
Experimental: as §1
The antitumor activity of study treatment will be assessed according to RECIST v1.1 guideline
As part of this phase 1/2 study, dose levels including 30, 45, 65, 100 and 150 mg BID were explored during the escalation phases. Efficacy expansions were initiated at 30, 65 and 100 mg BID. A Phase 2a expansion was initiated at 100 mg BID after meeting protocol specified safety and efficacy criteria. Tumor assessments were performed at baseline, after 6 weeks of CLN-081 administration and every 9 weeks thereafter.

[3] = tested on: EGFR and EGFR mutants that harbor an exon 20 insertion mutation; conditions: EGFR and exon 20 insertion mutants; cited from earlier work
[4] = tested on: mutant EGFRs that possess in-frame insertion mutations in exon 20; conditions: A763_Y764insFQEA, V769_D770insASV, D770_N771insG, D770_N771insSVD, H773_V774insNPH, H773_V774insPH; cited from earlier work
WT EGFR = WT EGFR (Homo sapiens, UniProt P00533); conditions: cited from earlier work
Chain of WT EGFR (P00533 25-1210): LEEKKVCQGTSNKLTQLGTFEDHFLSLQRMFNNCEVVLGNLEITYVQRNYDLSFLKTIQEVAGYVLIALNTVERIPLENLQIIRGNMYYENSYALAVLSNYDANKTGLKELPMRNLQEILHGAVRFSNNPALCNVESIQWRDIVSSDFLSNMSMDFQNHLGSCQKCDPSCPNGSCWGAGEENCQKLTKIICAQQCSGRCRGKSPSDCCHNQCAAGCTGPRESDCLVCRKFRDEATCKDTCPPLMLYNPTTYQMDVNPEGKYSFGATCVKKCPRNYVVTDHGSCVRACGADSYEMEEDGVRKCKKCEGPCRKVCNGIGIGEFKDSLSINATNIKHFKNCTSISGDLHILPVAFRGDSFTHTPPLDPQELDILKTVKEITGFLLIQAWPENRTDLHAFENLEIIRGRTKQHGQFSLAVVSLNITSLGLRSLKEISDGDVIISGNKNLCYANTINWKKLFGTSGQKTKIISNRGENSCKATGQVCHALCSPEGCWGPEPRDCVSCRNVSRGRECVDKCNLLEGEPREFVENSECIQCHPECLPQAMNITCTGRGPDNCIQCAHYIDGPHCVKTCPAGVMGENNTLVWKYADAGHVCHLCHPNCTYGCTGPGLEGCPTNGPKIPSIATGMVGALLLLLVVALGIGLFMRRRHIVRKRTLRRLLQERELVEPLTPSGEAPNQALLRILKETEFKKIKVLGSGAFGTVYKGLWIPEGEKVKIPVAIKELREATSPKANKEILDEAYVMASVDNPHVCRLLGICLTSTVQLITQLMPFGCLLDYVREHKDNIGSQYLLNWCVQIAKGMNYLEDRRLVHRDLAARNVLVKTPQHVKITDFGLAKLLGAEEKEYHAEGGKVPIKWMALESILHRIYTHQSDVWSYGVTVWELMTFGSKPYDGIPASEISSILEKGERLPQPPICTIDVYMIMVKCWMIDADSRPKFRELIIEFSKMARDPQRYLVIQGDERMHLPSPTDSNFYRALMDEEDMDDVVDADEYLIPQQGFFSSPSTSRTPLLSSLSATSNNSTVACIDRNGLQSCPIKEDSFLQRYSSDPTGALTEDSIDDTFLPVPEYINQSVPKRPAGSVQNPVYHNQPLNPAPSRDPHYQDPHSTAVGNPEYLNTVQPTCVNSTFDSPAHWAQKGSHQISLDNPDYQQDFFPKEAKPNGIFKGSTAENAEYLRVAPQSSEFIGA

[5] = tested on: cells expressing EGFR with exon 20 insertion mutations; conditions: cells expressing EGFR with exon 20 insertion mutations compared with cells expressing WT EGFR; cited from earlier work
[6] = tested on: NSCLC cell lines harboring mutant EGFR; conditions: LXF 2478 and NCI-H1975 EGFR D770_N771insSVD cells; with inhibition of EGFR phosphorylation and induction of caspase 3/7; cited from earlier work
[7] = tested on: KRAS mutant cell lines, NCI-H23 cells, and NCI-H460 cells; conditions: EGFR-independent cell growth; cited from earlier work
[8] = tested on: subcutaneously-implanted tumors expressing EGFR with exon 20 insertions; conditions: cited from earlier work
[9] = tested on: Ba/F3 cell lines harboring EGFR with mutations in exon 18 or exon 21; conditions: cited from earlier work
[10] = tested on: Ba/F3 harboring wild type EGFR; conditions: cited from earlier work
[11] = tested on: mutant EGFRs that possess L718Q mutation in exon 18 in combination with ex19del+T790M or L858R+T790M; conditions: cited from earlier work
[12] = tested on: mutant EGFRs that possess mutations at L792 (L792H, L792F, L792Y) in exon 20 in combination with ex19del+T790M or L858R+T790M; conditions: cited from earlier work
[13] = unbound, 100 mg BID, patient 0102-001
[14] = unbound, 100 mg BID, patient 0104-005
[15] = unbound, 100 mg BID, patient 0701-001
[16] = baseline ex19del+T790M or L858R+T790M

Compound: C=CC(=O)N[C@H]1C=C(C)c2c(-c3cnc4ccccc4c3)c3c(N)ncnc3n2C1 [Compound 1, (S)—N-(4-amino-6-methyl-5-(quinolin-3-yl)-8,9-dihydropyrimido[5,4-b]indolizin-8-yl)acrylamide]
- change in systemic exposure levels / drug accumulation ([1]; C1D1 to C1D15, listed as CLN-081): Minimal to no increase; also recorded: no evidence of meaningful drug accumulation
- dose proportionality of Cmax and AUC ([1]; across the dose range tested): dose proportional increase
- half-life ([1]; human, plasma, oral, 100 mg, 100 mg BID, patient 0102-001, read-out: T1/2 (converted)): 3.6 h
- half-life ([1]; human, plasma, oral, 100 mg, 100 mg BID, patient 0104-005, read-out: T1/2 (converted)): 6.1 h
- half-life ([1]; human, plasma, oral, 100 mg, 100 mg BID, patient 0701-001, read-out: T1/2 (converted)): 3.6 h
- half-life ([1]; human, plasma, po, oral BID, read-out: mean average terminal phase elimination half-life (t1/2) (converted)): ~4 h
- Tmax ([1]; human, plasma, oral, 30-100 mg BID): 0.5 to 2 h
- uAUC* [1, 13]: 957 ng·h/mL
- uCmax [1, 13]: 260 ng/mL
- uAUC* [1, 14]: 1213 ng·h/mL
- uCmax [1, 14]: 274 ng/mL
- uAUC* [1, 15]: 1353 ng·h/mL
- uCmax [1, 15]: 418 ng/mL
- AUC0-8hr versus dose ([1]; unbound, 30 to 100 mg BID): generally increase with increasing dose
- Cmax versus dose ([1]; unbound, 30 to 100 mg BID): generally increase with increasing dose
- Best response PR, % ([2]; 30 mg BID (n = 8)): 38%
- Best response SD, % ([2]; 30 mg BID (n = 8)): 62%
- Confirmed response, % ([2]; 30 mg BID (n = 8)): 38%
- Disease Control Rate (PR + SD ≥ 6 mo), % ([2]; 30 mg BID (n = 8)): 62%
- Best response SD, % ([2]; 45 mg BID (n = 1)): 100%
- Best response PD, % ([2]; 65 mg BID (n = 14)): (7) %
- Best response PR, % ([2]; 65 mg BID (n = 14)): (50) %
- Best response SD, % ([2]; 65 mg BID (n = 14)): (43) %
- Confirmed response, % ([2]; 65 mg BID (n = 14)): (14) %
- Disease Control Rate (PR + SD ≥ 6 mo), % ([2]; 65 mg BID (n = 14)): (57) %
- Pending confirmation, % ([2]; 65 mg BID (n = 14)): (21) %
- Unconfirmed response, % ([2]; 65 mg BID (n = 14)): (14) %
- Best response PR, % ([2]; 100 mg BID (n = 13)): (54) %
- Best response SD, % ([2]; 100 mg BID (n = 13)): (46) %
- Confirmed response, % ([2]; 100 mg BID (n = 13)): (46) %
- Disease Control Rate (PR + SD ≥ 6 mo), % ([2]; 100 mg BID (n = 13)): (69) %
- Unconfirmed response, % ([2]; 100 mg BID (n = 13)): (8) %
- evaluable patients who achieved a PR ([2]; 100 mg BID, 7/13, 6 confirmed and 1 unconfirmed): 54%
- Best response PR, % ([2]; 150 mg BID (n = 6)): 67%
- Best response SD, % ([2]; 150 mg BID (n = 6)): 33%
- Confirmed response, % ([2]; 150 mg BID (n = 6)): 33%
- Disease Control Rate (PR + SD ≥ 6 mo), % ([2]; 150 mg BID (n = 6)): 83%
- Pending confirmation, % ([2]; 150 mg BID (n = 6)): 33%
- objective responses (all partial responses) ([2]; 21 of 42 evaluable patients across dose levels): 50%
- response-evaluable patients who remained on treatment at the data cut-off ([2]; 22/42 across dose levels): 52%
- Disease control (PR or SD ≥6 months) ([2]; 27/42 across all doses): 64%
- patients with stable disease (SD) or PR as the best response ([2]; 41/42 across dose levels): 98%
- patients with disease progression as the best response ([2]; across dose levels): one
- antitumor activity ([2]; heavily-pretreated patients, across EGFR Ins 20 variants and dose levels): encouraging antitumor activity
- dose cohorts in which partial responses were registered ([2]; in vivo): all dose cohorts tested so far
- lowest dose cohort at which partial response was reported ([2]; in vivo): 30 mg BID
- unconfirmed objective responses, patients ([2]; of 21 responders, including 5 pending a confirmatory scan): 8
- confirmed objective responses, patients ([2]; of the 21 patients achieving an objective response): 13
- response in patients previously treated with poziotinib and TAK788 (mobocertinib) ([2]; some patients): partial responses
- inhibition of in vitro phosphorylation activity of EGFR and EGFR mutants [3]: inhibited
- potency in inhibiting the phosphorylation of mutant EGFRs [4]: intensive cellular potency
- inhibition against WT EGFR (WT EGFR): moderate inhibition
- inhibitory effect on proliferation [5]: more potent and selective inhibitory effect
- growth of NSCLC cells with EGFR exon 20 insertions [6]: suppressed the growth
- GI50 [7]: > 3000 nM
- antitumor efficacy ([8]; V769_D770insASV, D770_N771insSVD, H773_V774insNPH, dose-dependent): striking tumor growth inhibition and tumor regression effects
- antitumor efficacy of twice-daily versus once-daily administration ([8]; nude mice transplanted with NCI-H1975 EGFR D770_N771insSVD): not inferior
- selectivity index compared to osimertinib ([9]; T790M in addition to either G719A or L861Q): higher
- selectivity index (ratio between IC50 for WT EGFR and mutant EGFR cell lines) compared to erlotinib and afatinib [9]: much higher
- IC50 [10]: 597 nM
- potency in inhibiting the phosphorylation of mutant EGFRs ([11]; L718Q+ex19del+T790M or L718Q+L858R+T790M): intensive cellular potency
- absolute activity and selectivity over baseline mutations compared with osimertinib, erlotinib and Afatinib [11, 16]: higher
- potency in inhibiting the phosphorylation of mutant EGFRs ([12]; L792H, L792F, L792Y each with ex19del+T790M or L858R+T790M): intensive cellular potency
- absolute activity and selectivity over baseline mutations compared with osimertinib, erlotinib and Afatinib [12, 16]: higher
